Legend:
Type in all cases: cell-based, human
MU89 melanoma cells = test: Tumor cell/T cell co-culture IL-2 ELISA (Melan-A/MART-1 specific TCR Jurkat line J-TCR-M1 as responder); conditions: for Fold increase (IL-2 relative to untreated controls), hits from pilot screen: about 10 μM, 72 hours treatment, then 24 hours co-culture; for Outcome in the primary co-culture IL-2 screen (hit or not): ICCB Known Bioactives Library, 10 μM
Excerpt: The assay relies on the use of an antigen-specific responder T cell line. […] The chosen TCR reacts specifically to a Melan-A/MART-1 decapeptide (26[…]35) presented by HLA-A2, with appropriate triggering of T cell activation. We then used a lentiviral vector system for transduction of this specific TCR into the J.RT3-T3.5 T cell line, a Jurkat cell derivative which fails to express endogenous surface TCR through a mutation in its beta chain.
We evaluated several candidate melanoma cell lines for the ability to stimulate the J-TCR-M1 cell line. Levels of Melan-A/MART-1 (determined by intracellular staining and flow cytometry) and corresponding levels of induced IL-2 (determined by coculture with J-TCR-M1 and IL-2 ELISA) were tested for different melanoma cell lines.
The 480 compounds were tested in six parallel 96 well plates. The first two columns (16 wells) of each plate were used for standards (8 wells), untreated controls (4 wells), and positive controls (4 wells). The other ten columns (80 wells) were used for testing compounds in separate wells. A100 μl aliquot containing 5×10^4 MU89 cells was added to wells that contained 0.1 μl of each test drug diluted in 50 μl of RPMI media. The plates were incubated with drug for 72 hours at 37° C. in a humidified incubator with 5% CO2. After 72 hours, each well received 2.5×10^4J-TCR-M1 cells in 50 μl medium, and then incubated a further 24 hours. At the conclusion of the 24 hour co-culture period, each plate was centrifuged to pellet the cells and 100 μl supernatant fluid was collected from each well and plated in a parallel 96 well flat bottom well for IL-2 ELISA assay.
Melanoma cells were treated with hits from the primary screen for three days prior to counting and plating for the coculture assay (cells were washed and resuspended in fresh medium that no longer contained the treatment agents during the co-culture). A100 μl volume of 5×10^5 cells/ml tumor cells were mixed with 50 μl of […] T cells in a 96-well V-bottom plate and incubated overnight (16-24 hours). Plates were centrifuged to pellet the cells and 100 μl of supernatant fluid was removed from each well for cytokine assay. To assess antigen-specific T cell responses, a final concentration of 3.33 μg/ml Melan-A/MART-1 peptide (26[…]35 (A27L from wild type)) was added to the co-culture.
The protocol for evaluation of the cytokine IL-2 was performed using a the BD OptEAI kit, human IL-2 ELISA set from BD Biosciences (San Diego, Calif.) following the manufacturer's recommendations. The absorbance 450 nm was read in a BioRad 3550 plate reader. A standard curve using known concentrations of IL-2 (from 500 to 8 pg/ml) was included in each ELISA plate. IL-2 levels for experimental samples (pg/ml) were calculated from the standard curve.
100 μl of 5×10^5 tumor cells/ml were mixed with 50 μl of T cells (at 5×10^5 cells/ml) in a 96-well V-bottom plate and incubated overnight (16-24 hours). Plates were centrifuged to pellet the cells and 120 μl of supernatant fluid was removed from each well for cytokine assay. To assess antigen-specific T cell responses, 3.33 μg/ml Melan-A/MART-1 peptide was added to the co-culture.
The protocols for evaluation of either IL-2 or IFN-gamma were similar, following the manufacturer's recommendations. A standard curve using known concentrations of each cytokine was included in each ELISA experiment. ELISA plates were coated with capture antibody and then washed with 1×PBS 0.5% Tween-20. Wells were blocked with 1×PBS 1% FBS for 1 hour and rewashed.

U2-OS osteosarcoma cells = test: Surface antibody staining and flow cytometry (MHC Class I/II); conditions: U2-OS cells; Table 20; single agent or simultaneous combination
Protocol: (§1) Intracellular staining and flow cytometric analyses of cytoplasmic Melan-A/MART-1, and gp100 expression were performed as described previously. Cells were fixed with 1% formaldehyde, permeabilized with 0.1% saponin, stained with monoclonal antibodies to melanocyte antigens. Antibodies were obtained with specificity for: Melan-A/MART-1 from Vector Labs (Burlingame, Calif.); gp100/HMB45 from DakoCytomation (Carpinteria, Calif.) and then visualized with goat anti-mouse FITC-conjugated secondary antibody from Invitrogen (Frederick, Md.). The level of EGFP was determined by flow cytometry of unfixed cells washed and resuspended in 1×PBS. Surface staining of MHC Class I was carried out using the antibody W6/32 on cells harvested with Cell Stripper from MediaTech Inc. (Manassas, Va.) and carried out on ice.
(§2) Cell were seeded at 1×10^6 cells in a T25 flask with 10 ml of media for the 4 day IFN-beta pre-treatments. Cells were then harvested and plated in 24 well plate at 1×10^5 cells per well in 1 ml of media for 3 day treatments.
(§3) For surface staining of HLA Class I and II antigens, cells were harvested using CellStripper™ from Mediatech (Manassas, Va.). All staining steps were performed on ice. Following a first incubation with antibody to Class I (W6/32) or Class II (L243) for 30 minutes. Stained cells were washed twice with cold PBS and then stained with a goat anti-mouse FITC secondary antibody to allow for quantitative analysis by flow cytometry. For evaluation of cytoplasmic antigens, including Melan-A/MART-1 and gp100, cells were first fixed in paraformaldehyde and permeabilized with saponin as previously described. Staining for cytoplasmic antigens was carried out at room temperature (22° C.).

[1] = tested on: MCF-7 breast cancer cells; test: as above; conditions: MCF-7 cells; Table 20; single agent or simultaneous combination
Protocol: as §1, §2, §3

[2] = tested on: HeLa cervical carcinoma cells; test: as above; conditions: HeLa cells
Protocol: as §1, §2, §3

MU89 melanoma cell line = test: Antibody staining and flow cytometry (intracellular Melan-A/MART-1, gp100, TRP-2; surface MHC Class I/II); conditions: MU89 cells
Protocol: (§4) Cells were fixed with 1% formaldehyde, permeabilized with 0.1% saponin, stained with monoclonal antibodies to melanocyte antigens. Antibodies were obtained with specificity for: MART-1 from Vector Labs (Burlingame, Calif.); gp100 HMB45 from DakoCytomation (Carpinteria, Calif.) and then visualized with goat anti-mouse FITC-conjugated secondary antibody from Invitrogen (Fredrick, Md.). The level of EGFP was determined by flow cytometry of unfixed cells that were washed and resuspended in 1×PBS.
(§5) Cells were plated at a density of 1×10^5 in 1 ml of medium in a 24-well plate and cultured for varying times as indicated in results. […] After incubation, cells were collected by trypsinization and then evaluated by flow cytometry.
as §1, §2, §3

[3] = tested on: U-118 MG glioma cell line; test: Antibody staining and flow cytometry (intracellular gp100; surface MHC Class I/II); conditions: U118 cells; Table 20; single agent or simultaneous combination
Protocol: as §4, §5, §1, §2, §3

[4] = Table 20, single agent or simultaneous combination
[5] = Table 21, no pre-treatment, treatment as labelled
[6] = Table 21, pre-treatment PU-H71 (3 days), then treatment as labelled
[7] = Table 21, substance given as pre-treatment (3 days) only, no subsequent treatment

Compound: COc1c(C=O)c(O)cc2c1C(=O)c1ccccc1C2=O [Damnacanthal]
- Fold increase (IL-2 relative to untreated controls), hits from pilot screen (MU89 melanoma cells): 2.1 fold

Compound: O=C1CN(/N=C/c2ccc(-c3ccc([N+](=O)[O-])cc3)o2)C(O)=N1 [Dantrolene]
- Fold increase (IL-2 relative to untreated controls), hits from pilot screen (MU89 melanoma cells): 2.4 fold

Compound: Fc1ccc(C(c2ccc(F)cc2)N2CCN(C/C=C/c3ccccc3)CC2)cc1 [Flunarizine]
- Fold increase (IL-2 relative to untreated controls), hits from pilot screen (MU89 melanoma cells): 11.9 fold

Compound: COc1ccc(Cl)cc1C(=O)NCCc1ccc(S(=O)(=O)NC(=O)NC2CCCCC2)cc1 [Glyburide]
- Fold increase (IL-2 relative to untreated controls), hits from pilot screen (MU89 melanoma cells): 2.6 fold

Compound: CCCCCCCCCCCCCCCCCCc1ccc(C(=O)C=CC(=O)O)cc1 [OBAA, 3-(4-octadecyl)benzoylacrylic acid]
- Fold increase (IL-2 relative to untreated controls), hits from pilot screen (MU89 melanoma cells): 5.9 fold

Compound: COc1cccc(-c2cc(=O)c3ccccc3o2)c1N [PD98059]
- Outcome in the primary co-culture IL-2 screen (hit or not) (MU89 melanoma cells): failed to be identified

Compound: N#CC(=C(/N)Sc1ccccc1N)/C(C#N)=C(\N)Sc1ccccc1N [U0126]
- Outcome in the primary co-culture IL-2 screen (hit or not) (MU89 melanoma cells): failed to be identified

Compound: CC[C@@]1(O)C(=O)OCc2c1cc1n(c2=O)Cc2cc3ccccc3nc2-1 [camptothecin]
- Outcome in the primary co-culture IL-2 screen (hit or not) (MU89 melanoma cells): failed to be identified

Compound: COc1cccc2c1C(=O)c1c(O)c3c(c(O)c1C2=O)C[C@@](O)(C(C)=O)C[C@@H]3O[C@H]1C[C@H](N)[C@H](O)[C@H](C)O1 [daunorubicin]
- Outcome in the primary co-culture IL-2 screen (hit or not) (MU89 melanoma cells): interferes with the direct co-culture assay

Compound: COc1cccc2c1C(=O)c1c(O)c3c(c(O)c1C2=O)C[C@@](O)(C(=O)CO)C[C@@H]3O[C@H]1C[C@H](N)[C@H](O)[C@H](C)O1 [doxorubicin]
- Outcome in the primary co-culture IL-2 screen (hit or not) (MU89 melanoma cells): failed to be identified

Compound: COc1cc([C@@H]2c3cc4c(cc3[C@@H](O[C@@H]3O[C@@H]5CO[C@@H](C)O[C@H]5[C@H](O)[C@H]3O)[C@H]3COC(=O)[C@H]23)OCO4)cc(OC)c1O [etoposide]
- Outcome in the primary co-culture IL-2 screen (hit or not) (MU89 melanoma cells): failed to be identified

Compound: IFN-G
- L243 (MHC Class II surface staining) (U2-OS osteosarcoma cells): 142.8
- W6/32 (MHC Class I surface staining) (U2-OS osteosarcoma cells): 397.1
- L243 (MHC Class II surface staining) [1]: 59.1
- W6/32 (MHC Class I surface staining) [1]: 478.5
- L243 (MHC Class II surface staining) [2, 4]: 86.0
- W6/32 (MHC Class I surface staining) [2, 4]: 464.8
- L243 (MHC Class II surface staining) [2, 5]: 97
- L243 (MHC Class II surface staining) [2, 6]: 33
- L243 (MHC Class II surface staining) [2, 7]: 76
- L243 (MHC Class II surface staining) (MU89 melanoma cell line; [4]): 64.3
- W6/32 (MHC Class I surface staining) (MU89 melanoma cell line; [4]): 86.7
- L243 (MHC Class II surface staining) (MU89 melanoma cell line; [5]): 81
- L243 (MHC Class II surface staining) (MU89 melanoma cell line; [6]): 90
- L243 (MHC Class II surface staining) (MU89 melanoma cell line; [7]): 64
- L243 (MHC Class II surface staining) [3]: 53.6
- W6/32 (MHC Class I surface staining) [3]: 232.8
